Calls of active or inactive are those of the source.
What was measured:
[1] = target: T1, Orexin/Hypocretin receptor type 1 (Homo sapiens, UniProt O43613); test: (§1) Displacement of [3H]-[…] from human orexin 1 receptor expressed in CHO cells incubated for 2 hrs by whole cell radioligand binding assay; type: cell-based
T1 sequence (O43613 whole entry): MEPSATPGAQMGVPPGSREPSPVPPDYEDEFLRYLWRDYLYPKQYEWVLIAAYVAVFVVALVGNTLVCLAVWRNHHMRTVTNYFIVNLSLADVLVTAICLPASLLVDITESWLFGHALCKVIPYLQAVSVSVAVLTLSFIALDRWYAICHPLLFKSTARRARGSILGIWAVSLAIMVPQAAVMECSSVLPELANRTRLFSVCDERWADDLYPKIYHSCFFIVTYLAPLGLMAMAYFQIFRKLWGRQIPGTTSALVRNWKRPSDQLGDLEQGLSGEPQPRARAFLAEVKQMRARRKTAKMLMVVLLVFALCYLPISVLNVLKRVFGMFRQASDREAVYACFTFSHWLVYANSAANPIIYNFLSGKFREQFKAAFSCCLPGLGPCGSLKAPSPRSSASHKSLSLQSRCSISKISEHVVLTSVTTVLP

[2] = (§2) Displacement of [3H]-EMPA from human orexin 2 receptor expressed in CHO cells incubated for 2 hrs by whole cell radioligand binding assay; type: cell-based
Homo sapiens [3] = species: Homo sapiens; test: Displacement of [3H]-EMPA from human orexin 2 receptor expressed in CHO cells incubated for 2 hrs by whole cell radioligand binding assay relative to control; type: cell-based; parameters: concentration or dose not given beside the values; settings: dose or concentration not given here
[4] = target: T2, Orexin receptor type 2 (Homo sapiens) (UniProt O43614); test: Agonist activity at human orexin 2 receptor expressed in CHO cells assessed as increase in calcium mobilization incubated for 120 secs by Fluo-4AM dye based fluorescence assay; type: functional, cell-based; settings: time 120.0 sec
T2 sequence (whole entry): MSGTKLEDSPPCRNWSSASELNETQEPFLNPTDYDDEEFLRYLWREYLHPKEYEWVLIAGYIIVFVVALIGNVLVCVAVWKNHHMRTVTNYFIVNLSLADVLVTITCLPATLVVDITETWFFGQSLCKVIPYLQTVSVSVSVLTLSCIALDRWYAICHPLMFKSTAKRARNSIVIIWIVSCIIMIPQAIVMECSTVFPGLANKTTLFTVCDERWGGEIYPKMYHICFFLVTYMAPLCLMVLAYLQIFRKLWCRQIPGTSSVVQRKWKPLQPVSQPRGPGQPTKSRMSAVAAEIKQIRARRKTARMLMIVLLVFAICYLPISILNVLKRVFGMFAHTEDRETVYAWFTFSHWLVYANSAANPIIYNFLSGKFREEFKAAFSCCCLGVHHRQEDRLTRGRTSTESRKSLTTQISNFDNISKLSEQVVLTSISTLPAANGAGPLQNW

[5] = target: T3, Orexin/Hypocretin receptor type 1 (Homo sapiens) (UniProt O43613); settings: CHO, time 120.0 sec
T3 sequence (whole entry): T1 sequence (O43613 whole entry)
Description: Agonist activity at human orexin 1 receptor expressed in CHO cells assessed as increase in calcium mobilization incubated for 120 secs by Fluo-4AM dye based fluorescence assay

[6] = target: T3, Orexin/Hypocretin receptor type 1 (Homo sapiens); test: as §1; type: cell-based
Homo sapiens [7] = species: Homo sapiens; test: as §2; type: cell-based

Compound | pEC50 [4] | pKi [6] | pKi (Homo sapiens [7]) | further results
O=C(Nc1cccc(/C=C/c2ccccn2)c1)c1occc1COc1ccccc1 |  |  |  | Ki [1]: 7.94 µM; pKi [2]: 4.98; inhibition (Homo sapiens [3]): 39.9%
Cc1[nH]c2ccccc2c1[C@@H]1c2ccccc2C(=O)N1CCC(=O)N1CCN(c2ccccn2)CC1 | inactive |  |  | IC50 [1]: > 100 µM
COc1ccc([C@H]2CCCN2C(=O)c2ccc(OCc3cn4ccccc4n3)cc2)c(OC)c1 | inactive |  |  | Ki [1]: 20.9 µM
C[C@H](Sc1nc(-c2ccco2)nc2ccccc12)C(=O)N1CCc2ccccc2C1 | inactive |  |  | pEC50 [5]: inactive; Ki [1]: 8.91 µM; pKi [2]: 5.5
Cc1ccccc1OC[C@@H]1CCCN(C(=O)CCc2nc(-c3ccccn3)no2)C1 | inactive |  |  | Ki [1]: 15.1 µM
C[C@@H](Oc1ccc2c(c1)oc(=O)c1ccccc12)C(=O)c1ccccc1 | inactive |  |  | pEC50 [5]: inactive; Ki [1]: 5.37 µM; pKi [2]: 5.27; inhibition (Homo sapiens [3]): 63.7%
O=C(COc1ccc(-c2ccccc2)cc1)c1ccc(O)cc1O | inactive | inactive | inactive | 
O=C(C1=NN([C@H]2CCS(=O)(=O)C2)C(=O)CC1)N(CCc1ccccc1)c1nc2ccccc2s1 | inactive |  |  | IC50 [1]: > 100 µM
O=C(c1ccc(-c2nc3ccccc3s2)o1)N(Cc1ccco1)Cc1ccco1 | inactive |  |  | pEC50 [5]: inactive; Ki [1]: 3.55 µM; pKi [2]: 5.5
O=C1c2ccc([N+](=O)[O-])cc2C(=O)N1c1cccc(-c2nc3ccccc3c(=O)o2)c1 |  | inactive | inactive | 
N[C@H]1C[C@@H](C(=O)O)N(C(=O)c2ccccc2OCc2ccccc2)C1 |  | inactive | inactive | 
Cc1ccc(C)c(OCC(=O)Oc2ccc3c(C)cc(=O)oc3c2)c1 |  | inactive | inactive | 
O=C(OCC(=O)N1N=C(c2ccc(Cl)cc2)C[C@H]1c1ccco1)c1ccc(-n2cccn2)nc1 |  | inactive | inactive | 
Cc1ccc2[nH]c(C)c(CC(=O)N(Cc3cccnc3)C3CC3)c2c1 | inactive |  |  | pEC50 [5]: inactive
CS(=O)(=O)N1CCc2cc(S(=O)(=O)N3CCN(Cc4ccc5c(c4)OCO5)CC3)ccc21 |  | inactive | inactive | 
Cc1ccc(Oc2ncccc2NC(=O)c2ccc3c(c2)OCCCO3)c2c1CCC2 |  |  |  | Ki [1]: 5.13 µM; pKi [2]: 5.19; inhibition (Homo sapiens [3]): 67.1%
C=CCOc1cccc([C@H]2c3c(oc4ccc(C)cc4c3=O)C(=O)N2Cc2ccco2)c1 |  | inactive | inactive | 
COc1ccc2c(c1)c1c(c(=O)n(Cc3ccccc3)c(=O)n1Cc1cc(=O)n3ccccc3n1)n2C |  | inactive | inactive | 
O=C(c1ccc(N2C(=O)CCC2=O)cc1)N1CCN(Cc2nc(C3CC3)cs2)CC1 |  | inactive | inactive | 
Cc1ccc(N2CCCN(C(=O)c3cn(C)c4ccccc34)CC2)nn1 | inactive |  |  | IC50 [1]: > 100 µM
Cc1ccc(CSCc2ccc(-c3nc(-c4ccccn4)no3)o2)cc1 | inactive |  |  | Ki [1]: 15.5 µM; pKi [2]: 5.07; inhibition (Homo sapiens [3]): 79.2%
O=C(CCc1nc(-c2ccccn2)no1)OCc1ccccn1 |  | inactive | inactive | 
COc1cccc(COc2ccc(-c3noc(-c4ccco4)n3)cc2OC)c1 |  | inactive | inactive | 

Compound | pEC50 [4] | pKi [6] | pKi (Homo sapiens [7]) | further results
N[C@H]1CCCN(C(=O)c2cc(-c3ccccc3)nc3ccccc23)CC1 |  | inactive | inactive | 
CCc1c(C)c2ccc(OCC(=O)c3ccc(F)cc3)cc2oc1=O |  | inactive | inactive | 
CCOc1ccc(-c2n[nH]c3c2[C@H](c2ccccc2OC)NC3=O)cc1 |  | inactive | inactive | 
COc1cc(=O)n2c(c1C(=O)N(C)[C@@H](C)c1ccco1)CCN(C(=O)c1c(F)cccc1F)CC2 |  | inactive | inactive | 
C[C@H](NC(=O)[C@H]1CC(=O)N(c2ccc3c(c2)CCC3)C1)c1cccnc1 |  | inactive | inactive | 
O=C(C1CC1)N1CCC[C@@H](Cn2cc(-c3cnc(-c4ccco4)nc3)nn2)C1 |  | inactive | inactive | 
Cc1ccc(C(=O)[C@H](C)Oc2cccc(N3C(=O)[C@H]4[C@H](C)C=CC[C@@H]4C3=O)c2)cc1 |  |  |  | Ki [1]: 7.76 µM; pKi [2]: 4.97; inhibition (Homo sapiens [3]): 49.9%
CCCN1C(C)=NS(=O)(=O)c2cc(C(=O)N3CCN(Cc4ccccc4)CC3)ccc21 |  | inactive | inactive | 
Cc1cc(C(C)(C)C)cc(C)c1Cn1cnc2c1c(=O)n(C)c(=O)n2C |  | inactive | inactive | 
O=C(Oc1cccc2c(OC(=O)c3ccco3)cccc12)c1ccco1 |  | inactive | inactive | 
Nc1cc(-c2ncccc2C(=O)N2C[C@H]3CC[C@@H]2C3)c2cc[nH]c2n1 |  | inactive | inactive | 
Cc1ccccc1CN(C)C(=O)Cc1csc(-c2cccc(F)c2)n1 | inactive |  |  | pEC50 [5]: inactive; Ki [1]: 3.24 µM; pKi [2]: 6.18
O=S(=O)([N-]c1nc2ccccc2nc1-[n+]1ccc(Oc2ccccc2)cc1)c1ccccc1 |  | inactive | inactive | 
O=C(CCCn1nnc2ccccc2c1=O)NCc1ccccn1 |  | inactive | inactive | 
O=C(c1sc2cccc(F)c2c1Cl)N1CCN(Cc2ccco2)CC1 | inactive |  |  | 
Cc1nc2cc(F)cc(C(=O)NCCOc3ccc4ccccc4c3)c2nc1C |  |  |  | pKi [2]: 5.83; inhibition (Homo sapiens [3]): 61.7%
CCOC(=O)c1cc(C(=O)N[C@@H](C)c2ccccc2)c(C)[nH]c1=O |  | inactive | inactive | 
CN(Cc1ccncc1)C(=O)c1ccc(COc2ccccc2C#N)o1 |  | inactive | inactive | 
O=C1NC(=O)C(=Cc2c(OCc3ccccc3F)ccc3ccccc23)C(=O)N1 | inactive |  |  | 
O=C(c1ccccc1Cc1ccccc1)N1CCN(Cc2csc(-c3ccco3)n2)CC1 | inactive |  |  | Ki [1]: 14.8 µM
Cc1ccc(-c2nc(CC(=O)N(C)Cc3c(F)cccc3Cl)cs2)o1 | inactive |  |  | pEC50 [5]: inactive; Ki [1]: 11.7 µM; pKi [2]: 5.55
Cc1ccc(C(=O)Oc2ccc(N3C(=O)[C@H]4C5C=CC(C6CC65)[C@@H]4C3=O)cc2)cc1 (some centres undefined) |  | inactive | inactive | 
Cc1ccc(-c2nc(CC(=O)N(C)[C@@H](C)c3ccc(F)cc3)cs2)o1 | inactive |  |  | pEC50 [5]: inactive; Ki [1]: 17 µM; pKi [2]: 5.53

From ChEMBL document CHEMBL4725416, “Structure-Based Discovery of Novel Ligands for the Orexin 2 Receptor” (J Med Chem, 2020)
